Where two headings read alike, the source gives them in different places.
Key:
[1] = test system: lung cancer A-549 cell line; assay: CellTiter-Glo Luminescent cell viability assay, anti-proliferative activity, A-549; type: cell-based, human; details: for inhibition at 30 µM: A549, 30 µM single concentration, quadruplicate, read-out: Growth inhibition % A-549; for IC50: read-out: IC50 A-549
Protocol: (§1) The anti-proliferative activity of the title compounds 3a-e, 5a-e, 7a-c, and 10a-l towards cancer cell lines, normal cell lines, and multidrug-resistant lung cancer NCI-H69AR cell line was determined using CellTiter-Glo™ Luminescent cell viability assay according to the previously published procedures[14]^,[15].
(§2) The cancer cell growth inhibitory activity of the synthesised 25 compounds 3a-e, 5a-e, 7a-c, and 10a-l was evaluated in vitro towards three human cancer cell lines, namely lung cancer A-549, human colon cancer HT-29, and breast cancer ZR-75 cell lines using CellTiter-Glo™ Luminescent cell viability assay. Sunitinib was included in this assay as a reference drug.
(§3) The prepared hydrazonoindolin-2-ones were first evaluated at preliminary anti-proliferative assay against the three cancer cell lines in quadruplicate at a single concentration of 30 µM. The data presented as percentage growth inhibition (GI%) caused by the test compounds (Table 1).

[2] = test system: breast cancer ZR-75 cell line; assay: CellTiter-Glo Luminescent cell viability assay, anti-proliferative activity, ZR-75; type: cell-based; details: Homo sapiens, ZR75; 30 µM single concentration, quadruplicate; read-out: Growth inhibition % ZR-75
Protocol: as §1, §2, §3

[3] = test system: A-549, ZR-75 and HT-29 cell lines; assay: Average anti-proliferative activity over the three cancer cell lines; type: cell-based, human; details: average over A-549, ZR-75, HT-29; for Average growth inhibition % / inhibition at 30 µM: 30 µM; for inhibition at 30 µM / IC50: Homo sapiens; for inhibition at 30 µM: read-out: Average growth inhibition %
Protocol: as §1, §2, §3

[4] = test system: colon cancer HT-29 cell line; assay: CellTiter-Glo Luminescent cell viability assay, anti-proliferative activity, HT-29; type: cell-based, human; details: 30 µM single concentration, quadruplicate; for inhibition at 30 µM: Homo sapiens, HT-29, read-out: Growth inhibition % HT-29
Protocol: as §1, §2, §3

[5] = test system: breast cancer ZR-75 cell line; assay: CellTiter-Glo Luminescent cell viability assay, anti-proliferative activity, ZR-75; type: cell-based, human
[6] = test system: colon cancer HT-29 cell line; assay: CellTiter-Glo Luminescent cell viability assay, anti-proliferative activity, HT-29; type: cell-based; details: Homo sapiens, mean ± SD of four separate experiments
[7] = Homo sapiens, A549, mean ± SD of four separate experiments
[8] = Homo sapiens, ZR75, mean ± SD of four separate experiments

O=C1Nc2ccccc2C1=NNc1nc(-c2ccc(Br)cc2)cs1 [Compound 10d, 3–(2-(4–(4-Bromophenyl)thiazol-2-yl)hydrazono)indolin-2-one]
inhibition at 30 µM ([1]; Homo sapiens): 12.3 ± 11.3% | inhibition at 30 µM [2]: 53.8 ± 19.2% | Average growth inhibition % [3]: 28.9% | inhibition at 30 µM [3]: < 35% | inhibition at 30 µM [4]: 20.6 ± 26.9%

O=C1Nc2ccc(Br)cc2C1=NNc1nc(-c2ccc(Br)cc2)cs1 [Compound 10l, 5-Bromo-3–(2-(4–(4-bromophenyl)thiazol-2-yl)hydrazono)indolin-2-one]
inhibition at 30 µM ([1]; Homo sapiens): -20.1 ± 5.9% | inhibition at 30 µM [2]: 40.9 ± 16.7% | Average growth inhibition % [3]: 34.4% | inhibition at 30 µM [3]: < 35% | inhibition at 30 µM [4]: 27.8 ± 4.3% | melting point: > 300 °C

COC(=O)c1ccc(C=NN=C2C(=O)Nc3ccc(Br)cc32)cc1 [Compound 3e, Methyl 4-(((5-bromo-2-oxoindolin-3-ylidene)hydrazono)methyl)benzoate]
IC50 [1, 7]: > 30 µM | inhibition at 30 µM ([1]; Homo sapiens): -4.2 ± 9.3% | IC50 ([1]; mean ± SD of four separate experiments): > 30 µM | inhibition at 30 µM [2]: 55.9 ± 18.2% | IC50 [5, 8]: 23.3 µM | inhibition at 30 µM [3]: 41.1% | IC50 [3]: > 27.8 µM | inhibition at 30 µM [4]: 26.3 ± 24.4% | IC50 [6]: > 30 µM | melting point: 283 to 285 °C

Cc1csc(C=NN=C2C(=O)Nc3ccc(Br)cc32)n1 [Compound 5e, 5-Bromo-3-(((4-methylthiazol-2-yl)methylene)hydrazono)indolin-2-one]
IC50 [1, 7]: 3.54 ± 0.42 µM | inhibition at 30 µM ([1]; Homo sapiens): 95.3 ± 3.1% | inhibition at 30 µM [2]: 96.9 ± 2.4% | IC50 [5, 8]: 2.93 ± 0.46 µM | inhibition at 30 µM [3]: 97.1% | IC50 [3]: 7.49 µM | inhibition at 30 µM [4]: 99 ± 1.1% | IC50 [6]: 8.51 µM | melting point: 248 to 250 °C

CC(=O)c1ccc(C=NN=C2C(=O)Nc3ccc(Br)cc32)cc1 [Compound 3d, 3-((4-Acetylbenzylidene)hydrazono)-5-bromoindolin-2-one]
IC50 [1, 7]: 26.1 ± 4.47 µM | inhibition at 30 µM ([1]; Homo sapiens): 17.3 ± 10.2% | inhibition at 30 µM [2]: 53.9 ± 14.4% | IC50 [5, 8]: > 30 µM | IC50 ([5]; mean ± SD of four separate experiments, listed as 4d): > 30 µM | inhibition at 30 µM [3]: 42.7% | IC50 [3]: > 28.7 µM | inhibition at 30 µM [4]: 56.8 ± 15.1% | IC50 [6]: > 30 µM | melting point: 270 to 272 °C

O=C1Nc2ccc(Br)cc2C1=NNc1nc(-c2ccccc2)cs1 [Compound 10i, 5-Bromo-3–(2-(4-phenylthiazol-2-yl)hydrazono)indolin-2-one]
IC50 [1, 7]: 6.13 ± 0.76 µM | inhibition at 30 µM ([1]; Homo sapiens): 92.3 ± 6.2% | inhibition at 30 µM [2]: 97.5 ± 3.1% | IC50 [5, 8]: 1.96 ± 0.85 µM | Average growth inhibition % [3]: 95.4% | inhibition at 30 µM [3]: > 80% | IC50 [3]: 5.45 µM | inhibition at 30 µM [4]: 96.3 ± 5.9% | IC50 [6]: 8.26 ± 0.86 µM | melting point: 285 to 287 °C

Cc1ccc(-c2csc(NN=C3C(=O)Nc4ccc(Cl)cc43)n2)cc1 [Compound 10f, 5-Chloro-3–(2-(4-(p-tolyl)thiazol-2-yl)hydrazono)indolin-2-one]
IC50 [1, 7]: 22.7 ± 3.71 µM | inhibition at 30 µM ([1]; Homo sapiens): 27.4 ± 5.8% | inhibition at 30 µM [2]: 50.3 ± 33.6% | IC50 [5, 8]: 23.4 µM | inhibition at 30 µM [3]: 44% | IC50 [3]: > 25.4 µM | inhibition at 30 µM [4]: 54.4 ± 19.5% | IC50 [6]: > 30 µM | melting point: > 300 °C

Cc1csc(C=NN=C2C(=O)Nc3ccc(Cl)cc32)n1 [Compound 5c, 5-Chloro-3-(((4-methylthiazol-2-yl)methylene)hydrazono)indolin-2-one]
IC50 [1, 7]: 2.15 ± 0.23 µM | inhibition at 30 µM ([1]; Homo sapiens): 98.8 ± 1.5% | inhibition at 30 µM [2]: 98 ± 2.6% | IC50 [5, 8]: 1.16 ± 0.39 µM | inhibition at 30 µM [3]: 97.7% | IC50 [3]: 2.53 µM | inhibition at 30 µM [4]: 96.4 ± 4.8% | IC50 [6]: 4.29 ± 0.25 µM | melting point: 290 to 292 °C

O=C1Nc2ccc(Br)cc2C1=NN=Cc1ccn[nH]1 [Compound 7c, 3-(((1H-pyrazol-5-yl)methylene)hydrazono)-5-bromoindolin-2-one]
inhibition at 30 µM ([1]; Homo sapiens): 32.8 ± 8.9% | inhibition at 30 µM [2]: 19.2 ± 22.8% | Average growth inhibition % [3]: 26.9% | inhibition at 30 µM [3]: < 35% | inhibition at 30 µM [4]: 28.8 ± 17.3% | melting point: 264 to 266 °C

O=C1Nc2ccc(Br)cc2C1=NNc1nc(-c2ccc(Cl)cc2)cs1 [Compound 10k, 5-Bromo-3–(2-(4–(4-chlorophenyl)thiazol-2-yl)hydrazono)indolin-2-one]
IC50 [1, 7]: 20.1 ± 3.81 µM | inhibition at 30 µM ([1]; Homo sapiens): 72.4 ± 3.5% | inhibition at 30 µM [2]: 50.6 ± 11.5% | IC50 [5, 8]: 3.61 µM | inhibition at 30 µM [3]: 63.3% | IC50 [3]: 14.5 µM | inhibition at 30 µM [4]: 66.8 ± 19.1% | IC50 [6]: 19.8 ± 1.63 µM | melting point: > 300 °C

O=C1Nc2ccc(Br)cc2C1=NN=Cc1nccs1 [Compound 5d, 5-Bromo-3-((thiazol-2-ylmethylene)hydrazono)indolin-2-one]
IC50 [1, 7]: 12.5 ± 1.73 µM | inhibition at 30 µM ([1]; Homo sapiens): 94.8 ± 2.5% | inhibition at 30 µM [2]: 96.4 ± 1.5% | IC50 [5, 8]: 12.7 ± 2.4 µM | inhibition at 30 µM [3]: 96.6% | IC50 [3]: 13.5 µM | inhibition at 30 µM [4]: 98.5 ± 3.1% | IC50 [6]: 15.3 ± 1.93 µM | melting point: 260 to 262 °C

O=C1Nc2ccc(Cl)cc2C1=NNc1nc(-c2ccc(Cl)cc2)cs1 [Compound 10g, 5-Chloro-3–(2-(4–(4-chlorophenyl)thiazol-2-yl)hydrazono)indolin-2-one]
IC50 [1, 7]: 6.07 ± 7.41 µM | inhibition at 30 µM ([1]; Homo sapiens): 18.9 ± 3.2% | inhibition at 30 µM [2]: 52.8 ± 9.4% | IC50 [5, 8]: 1.87 ± 0.26 µM | inhibition at 30 µM [3]: 35.4% | IC50 [3]: > 12.7 µM | inhibition at 30 µM [4]: 34.4 ± 23.6% | IC50 [6]: > 30 µM | melting point: > 300 °C

Cc1csc(C=NN=C2C(=O)Nc3ccccc32)n1 [Compound 5a, 3-(((4-Methylthiazol-2-yl)methylene)hydrazono)indolin-2-one]
inhibition at 30 µM ([1]; Homo sapiens): 2.4 ± 5% | inhibition at 30 µM [2]: 40.8 ± 25.7% | Average growth inhibition % [3]: 27.0% | inhibition at 30 µM [3]: < 35% | inhibition at 30 µM [4]: 37.9 ± 26.3% | melting point: 238 to 240 °C

CC(=O)c1ccc(C=NN=C2C(=O)Nc3ccccc32)cc1 [Compound 3a, 3-((4-Acetylbenzylidene)hydrazono)indolin-2-one]
inhibition at 30 µM ([1]; Homo sapiens): 12.7 ± 7.1% | inhibition at 30 µM [2]: 29.6 ± 24.4% | Average growth inhibition % [3]: 32.0% | inhibition at 30 µM [3]: < 35% | IC50 [3]: > 30 µM | inhibition at 30 µM [4]: 53.6 ± 12.2% | melting point: 228 to 230 °C

O=C1Nc2ccccc2C1=NNc1nc(-c2ccccc2)cs1 [Compound 10a, 3–(2-(4-Phenylthiazol-2-yl)hydrazono)indolin-2-one]
IC50 [1, 7]: 9.41 ± 1.29 µM | inhibition at 30 µM ([1]; Homo sapiens): 70.7 ± 5.7% | inhibition at 30 µM [2]: 76.9 ± 7.1% | IC50 [5, 8]: 4.35 µM | inhibition at 30 µM [3]: 79.6% | IC50 [3]: 11.1 µM | inhibition at 30 µM [4]: 91.2 ± 8.3% | IC50 [6]: 19.4 ± 1.03 µM

O=C1Nc2ccc(Cl)cc2C1=NNc1nc(-c2ccc(Br)cc2)cs1 [Compound 10h, 3–(2-(4–(4-Bromophenyl)thiazol-2-yl)hydrazono)-5-chloroindolin-2-one]
inhibition at 30 µM ([1]; Homo sapiens): -2.6 ± 7.5% | inhibition at 30 µM [2]: 9 ± 19.2% | Growth inhibition % HT-29 [4]: stimulated the growth | inhibition at 30 µM [4]: -8.3 ± 43.8% | melting point: > 300 °C

From PMC7011955, “Synthesis and biological evaluation of certain hydrazonoindolin-2-one derivatives as new potent anti-proliferative agents” (Journal of Enzyme Inhibition and Medicinal Chemistry, 2018)
